This note sets out measurements from US20030027870A1, “Fullerene derivatives that modulate nitric oxide synthase and clamodulin activity” (priority 2001, published 2003).

One assay deals with T1, iNOS (Mus musculus, UniProt P29477).
T1 construct: Expression of iNOS was induced with 5 μg/mL of Escherichia coli lipopolysaccharide and 50 units/mL of mouse γ-interferon; endogenous in cells; host or cells: RAW 264.7 macrophages induced with LPS and interferon-gamma; enzyme purified on 2',5'-ADP-agarose and DEAE-cellulose
Briefly: Citrulline formation assay, iNOS. The assay is classed as biochemical, murine. The conditions noted are these: read-out: IC50 for Inhibition of Citrulline Formation. On the procedure: Cytokine-inducible NOS was purified from murine RAW 264.7 macrophages grown in DMEM/Hepes, pH 7.5, supplemented with 10% fetal bovine serum. Expression of iNOS was induced with 5 μg/mL of Escherichia coli lipopolysaccharide and 50 units/mL of mouse γ-interferon. Homogeneous preparation of the iNOS was obtained through sequential purification on 2′,5′-ADP-agarose and DEAE-cellulose as described previously (Bryk, R. and Wolff, R. (1998) Biochemistry 37:4844-4852). Purified iNOS was about 95% pure as judged by a Coomassie-stained SDS-PAGE.
(§1) Citrulline formation by NOS isoforms was measured in 150 μL reaction mixtures containing 30 mM Hepes, pH 7.5, 1 mM DTT, 120 nM L-[2,3-^3H]-arginine without or with unlabeled arginine, 1 mM EGTA, 0.85 mM Ca^2+ (when present), 6 μM CaM (calmodulin, when present), 100 μM NADPH, and 300 μM BH4. Incubations were initiated by the addition of enzyme and reaction mixtures incubated for 30 min at 30° C. in duplicate and reactions stopped and analyzed as described by Wolff and Datto (Wolff and Datto, 1992). When citrulline formation was measured as a function of CaM concentration 1.5 mM Ca^2+ was employed in the assay Assay of NADPH-Oxidase Activity.

In assay [1] the target is T2, nNOS (Rattus norvegicus, UniProt P29476).
T2 construct: endogenous in cells; host or cells: rat GH3 pituitary cells; enzyme purified on 2',5'-ADP-agarose and calmodulin-Affi Gel 15 agarose
Briefly: Citrulline formation assay, nNOS. The assay is classed as biochemical. The conditions noted are these: read-out: IC50 for Inhibition of Citrulline Formation. On the procedure: (§2) Neuronal NOS was purified from rat GH3 pituitary cells grown in Ham's F-10 supplemented with 12.5% horse serum and 3% fetal bovine serum. Cells were homogenized in 5 volumes of 50 mM Mops, pH 7.4, 1 mM EGTA, 1 mM DTT, 100 mM NaCl, 0.5% CHAPSO, 50 μM BH4, 100 μM leupeptin, and 10 μM E64. A postmitochondrial supernatant fraction was generated by centrifugation and was affinity-purified on 2′,5′ADP-agarose as reported previously (Wolff, D. J. and Datto, G. (1992) Biochem. J. 284:201-206). The affinity-purified proteins were eluted with 50 mM Mops, pH 7.4, 1 mM EGTA, 1 mM DTT, 5 mM NADPH, 0.1% CHAPSO, 150 mM NaCl, 50 μM BH4, 100 μM leupeptin, and 10 μM E64. […] Fractions containing nNOS as determined by citrulline formation assay were concentrated with a Centriprep 30 (Amicon).
Citrulline formation by NOS isoforms was measured in 150 μL reaction mixtures containing 30 mM Hepes, pH 7.5, 1 mM DTT, 120 nM L-[2,3-^3H]-arginine without or with unlabeled arginine, 1 mM EGTA, 0.85 mM Ca^2+ (when present), 6 μM CaM (calmodulin, when present), 100 μM NADPH, and 300 μM BH4. Incubations were initiated by the addition of enzyme and reaction mixtures incubated for 30 min at 30° C. in duplicate and reactions stopped and analyzed as described by Wolff and Datto (Wolff and Datto, 1992). […]

A further assay deals with T3, eNOS (Bos taurus, UniProt P29473).
T3 construct: Bovine pulmonary arterial endothelial NOS (ENOS) was prepared; from tissue; host or cells: bovine pulmonary arterial endothelium
Briefly: Citrulline formation assay, eNOS. The assay is classed as biochemical, Bovine. The conditions noted are these: read-out: IC50 for Inhibition of Citrulline Formation. On the procedure:
Bovine pulmonary arterial endothelial NOS (ENOS) was prepared and characterized as described previously (Wolff, D. J. et al. (1994) Arch. Biochem. Biophys. 312:360-366).
as §1

Assay [2] deals with T2, nNOS. Briefly: NO formation assay (oxyhemoglobin to methemoglobin), nNOS. The assay is classed as biochemical. The conditions noted are these: multisite, positively cooperative inhibition of nNOS NO formation. The procedure: as §2
Nitric oxide production over time was measured spectrophotometrically at 401 nm by the conversion of oxyhemoglobin to methemoglobin (Noack, E. et al. (1992) Neuroprotocols 1:133-139). […] Methemoglobin formation was monitored against a reference cuvette containing complete reaction mixture without enzyme. NO production was calculated using an extinction coefficient of 38 mM^−1 cm^−1 (Noack et al.,1992).

Assay [3] has as its target T2, nNOS. Description: NADPH-oxidase activity (NADPH consumption) of nNOS. It is filed as biochemical. On the procedure:
(§3) Neuronal NOS was purified from rat GH3 pituitary cells grown in Ham's F-10 supplemented with 12.5% horse serum and 3% fetal bovine serum. Cells were homogenized in 5 volumes of 50 mM Mops, pH 7.4, 1 mM EGTA, 1 mM DTT, 100 mM NaCl, 0.5% CHAPSO, 50 μM BH4, 100 μM leupeptin, and 10 μM E64. A postmitochondrial supernatant fraction was generated by centrifugation and was affinity-purified on 2′,5′ADP-agarose as reported previously (Wolff, D. J. and Datto, G. (1992) Biochem. J. 284:201-206). The affinity-purified proteins were eluted with 50 mM Mops, pH 7.4, 1 mM EGTA, 1 mM DTT, 5 mM NADPH, 0.1% CHAPSO, 150 mM NaCl, 50 μM BH4, 100 μM leupeptin, and 10 μM E64. The eluate was adjusted to contain 2.5 mM Ca^2+ and was adsorbed to a calmodulin-Affi Gel 15 agarose column equilibrated in 50 mM Mops, 1 mM EGTA, 2.5 mM Ca^2+ 0.1% CHAPSO, 150 mM NaCl, 25 μM arginine, 1 mM DTT, 50 μM BH4, 100 μM leupeptin, and 10 μM E64. The column was washed with equilibration buffer containing 500 mM NaCl but without arginine, and nNOS was eluted with equilibration buffer containing 2.5 mM EGTA but without Ca^2+ or arginine. Fractions containing nNOS as determined by citrulline formation assay were concentrated with a Centriprep 30 (Amicon).
Standard reaction mixtures of 1 mL volume in quartz cuvettes contained 50 mM Hepes, pH 7.4, 150 μM NADPH, 6 μM CaM, 1 mM EGTA, 0.85 mM Ca^2+ and 0.15 μM BH4. Reactions were initiated by the addition of nNOS enzyme and NADPH consumption was measured from the change in light absorbance at 340 nm as compared to an identical reference cuvette without enzyme using an extinction coefficient of 6.22 mM^−1 cm^−1.

For assay [4], the target named is T2, nNOS. Description: Cytochrome c reductase assay of nNOS. The assay is classed as biochemical. The following applies: at concentrations as high as 300 μM. The procedure:
as §3, with “The column was washed with equilibration buffer containing 500 mM NaCl but without arginine, and nNOS was eluted with equilibration buffer containing 2.5 mM EGTA but without Ca^2+ or arginine.” left out
The cytochrome c reductase activity of nNOS was determined as described previously, (Cooper et al. (2000) Arch. Biochem. Biophys. 375:183-194) in the presence of 1 mM EGTA, 2 mM Ca^2+, and 10 μg/ml CaM. An extinction coefficient of 21 mM^−1 cm^−1 (22) was used to quantify cytochrome c reduction.

The next assay concerns the target T4, nNOS dimers (Rattus norvegicus, UniProt P29476).
T4 construct: endogenous in cells; host or cells: rat GH3 pituitary cells
Description: Sucrose density gradient centrifugation of nNOS. The conditions noted are these: fully inhibitory concentrations. The procedure: Samples of nNOS were either unadjusted (control) or were adjusted to 50 μM C3-tris-malonyl-C60-fullerene and were applied to a 5-20% sucrose gradient containing 50 mM Mops, pH 7.4, 150 mM NaCl, 1 mM EGTA, 1 mM DTT, 0.3% CHAPSO, and 10 μM BH4, either without (control) or containing 50 μM C3-tris-malonyl-C60-fullerene. Gradients were run at 35,000 rpm for 18 h at 4° C. in an L5-L5 Beckman Ultracentrifuge using an SW41 rotor. Fractions (375 μL) were collected using an ISCO density gradient fractionator, Model 185. The fractions from the gradient were kept on ice and portions were assayed for cytochrome c reductase activity (measures both monomers and dimers) and citrulline forming activity (measures dimers exclusively). Hemoglobin (4.09S), catalyze (11.9S), and thyoglobulin (19.4S) were run in a separate tube as sedimentation markers.

The target in assay [5] is T5, nNOS.
T5 construct: Bovine brain calmodulin was prepared; endogenous in cells; host or cells: rat GH3 pituitary cells (nNOS); bovine brain (calmodulin)
Description: CaM antagonists inhibiting citrulline formation by nNOS at 6 nM CaM. The assay is classed as biochemical, rat. The following applies: 30-min incubation.
Description: Cells were homogenized in 5 volumes of 50 mM Mops, pH 7.4, 1 mM EGTA, 1 mM DTT, 100 mM NaCl, 0.5% CHAPSO, 50 μM BH4, 100 μM leupeptin, and 10 μM E64. […] Fractions containing nNOS as determined by citrulline formation assay were concentrated with a Centriprep 30 (Amicon).

T4 sequence (P29476 whole entry): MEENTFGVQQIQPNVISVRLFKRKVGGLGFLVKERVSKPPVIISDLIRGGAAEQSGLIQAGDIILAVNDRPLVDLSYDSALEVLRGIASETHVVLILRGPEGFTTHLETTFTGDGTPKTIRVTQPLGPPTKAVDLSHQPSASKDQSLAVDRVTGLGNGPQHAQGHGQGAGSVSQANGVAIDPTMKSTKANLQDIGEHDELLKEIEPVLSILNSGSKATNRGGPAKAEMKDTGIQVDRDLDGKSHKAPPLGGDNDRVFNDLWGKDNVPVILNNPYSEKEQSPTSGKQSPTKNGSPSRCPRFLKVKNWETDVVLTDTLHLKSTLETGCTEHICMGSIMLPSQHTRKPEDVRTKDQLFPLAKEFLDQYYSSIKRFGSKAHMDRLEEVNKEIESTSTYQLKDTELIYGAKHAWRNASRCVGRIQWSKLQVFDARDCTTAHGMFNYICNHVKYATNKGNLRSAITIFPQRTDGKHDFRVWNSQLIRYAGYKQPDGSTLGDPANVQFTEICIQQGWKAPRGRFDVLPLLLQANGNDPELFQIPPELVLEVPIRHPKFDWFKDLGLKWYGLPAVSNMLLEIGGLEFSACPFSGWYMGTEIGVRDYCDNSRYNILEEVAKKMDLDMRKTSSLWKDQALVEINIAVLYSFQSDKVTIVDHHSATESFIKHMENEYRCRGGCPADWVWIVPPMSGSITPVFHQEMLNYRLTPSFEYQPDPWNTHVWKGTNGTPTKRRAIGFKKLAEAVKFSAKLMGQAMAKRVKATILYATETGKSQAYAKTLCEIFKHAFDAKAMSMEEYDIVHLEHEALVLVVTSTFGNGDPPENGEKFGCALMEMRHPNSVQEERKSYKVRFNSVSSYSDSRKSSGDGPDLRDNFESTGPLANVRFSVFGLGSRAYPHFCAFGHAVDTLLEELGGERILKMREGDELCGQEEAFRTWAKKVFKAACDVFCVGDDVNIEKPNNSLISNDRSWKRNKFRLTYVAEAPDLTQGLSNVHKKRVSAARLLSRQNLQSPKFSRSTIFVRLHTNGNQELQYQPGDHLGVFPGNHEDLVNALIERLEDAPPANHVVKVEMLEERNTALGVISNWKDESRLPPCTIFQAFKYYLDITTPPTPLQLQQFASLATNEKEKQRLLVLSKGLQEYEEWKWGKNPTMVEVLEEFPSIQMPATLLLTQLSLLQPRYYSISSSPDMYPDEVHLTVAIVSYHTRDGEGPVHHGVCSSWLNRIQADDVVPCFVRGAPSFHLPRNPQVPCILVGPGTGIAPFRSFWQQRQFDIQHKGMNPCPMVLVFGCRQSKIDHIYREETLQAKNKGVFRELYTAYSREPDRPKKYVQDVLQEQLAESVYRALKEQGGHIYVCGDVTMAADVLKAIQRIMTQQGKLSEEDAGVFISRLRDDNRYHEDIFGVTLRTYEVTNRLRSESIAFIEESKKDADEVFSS

With “1,2:18,36:31,32-Tris(methano)[60] fullerene-61, 61, 62, 62, 63, 63 hexa-carboxylic acid, (e,e,e) C3 symmetry isomer [C3-Tris malonyl adduct diacid]”, the half-maximal inhibitory concentration (IC50) on iNOS is 123 µM; on nNOS [1], 24 µM; on eNOS, 17 µM; against nNOS [3] (arginine-independent), 22 µM. Moreover, on nNOS [2], the “Hill coefficient of inhibition” value is 2.0. Moreover, the “inhibition of arginine-independent NADPH-oxidase activity of nNOS (in words)” value against nNOS [3] is recorded as “inhibited”. At nNOS [4], the “effects on cytochrome c reductase activity of nNOS” value is listed as “no effects”. Also, the “dissociation of nNOS dimers into monomers” value on nNOS dimers is recorded as “did not produce a dissociation”.

For “1,2:34,35:40,41-tris(methano)[60] fullerene-61, 61, 62, 62, 63, 63 hexacarboxylic acid, (trans-3, trans-3, trans-3) D3 symmetry isomer [D3-Tris malonyl adduct diacid]”, the 50% inhibitory concentration (IC50) on iNOS was determined as 317 µM; on nNOS [1], 86 µM; on eNOS, 143 µM. The “inhibition of arginine-independent NADPH-oxidase activity of nNOS (in words)” value at nNOS [3] is recorded as “inhibited”.

On nNOS [5], `Clc1ccc(C(c2ccc(Cl)cc2)n2cc[n+](CC(OCc3ccc(Cl)cc3Cl)c3ccc(Cl)cc3Cl)c2)cc1` (stereo not shown) [Calmidazolium] had an IC50 of 0.273 µM.

What is called IC50 is the point on the concentration scale where inhibition reaches its midpoint.
